Measurements reported in patent US9163021B2, “Pyrrolo[3,2-c]pyridine tropomyosin-related kinase inhibitors” (Pfizer Limited, priority 2012, dated 2015).

Biological target: TRKA (Homo sapiens (Human), UniProt P04629)
Test: Isolated TRK enzyme assay (HTRF KinEASE-TK), PV3144 TrkA enzyme assay
Type: biochemical
Conditions: arithmetic mean where more than one reading
Experimental: Isolated TRK Enzyme assays use the HTRF KinEASE-TK kit (Cisbio Cat#62TK0PEJ) with recombinant His-tagged cytoplasmic domains of each TRK receptor sourced from Invitrogen (see table below). This activity-assay measures the phosphorylation of tyrosine residues within a substrate from the HTRF kit which has been validated by Cisbio for a variety of tyrosine kinases including the TRK receptors.
0.5 mM stock solutions of test compounds are prepared and serially diluted in 100% DMSO. A standard curve using the compound of Example 135 disclosed in WO2005/116035 of 150 uM is also prepared on each test plate. High percentage effect (HPE) is defined by 150 uM (using the compound of Example 135 as disclosed in WO2005/116035) and 0% effect (ZPE) is defined by 100% DMSO. Greiner low volume black plates containing 0.2 ul of serially diluted compound, standard and HPE/ZPE are created using the Bravo nanoliter dispenser.
1× enzyme buffer is prepared from 5× Enzymatic Buffer from the Cisbio KinEASE TK kit using MilliQ water. The buffer is then supplemented with 10 mM MgCI and 2 mM DTT (both from Sigma). In the case of TRKB, the buffer is also supplemented with 125 nM Supplement Enzymatic Buffer (SEB) from the Cisbio kit.
2× FAC of enzyme and 2× FAC ATP diluted in 1× complete enzyme buffer is incubated at room temperature for 20 minutes to preactivate the enzyme. Following this preactivation step, 5 ul/well of enzyme+ATP mix is added using a Multidrop Micro to the assay plate, spotted with 0.2 ul 100% DMSO compound. This is left for 20 mins at room temperature before adding 5 ul of 2 uM TK-substrate-Biotin (from the Cisbio kit) diluted in 1× enzyme buffer (1 uM FAC) using the Multidrop Micro. The reaction is incubated at room temperature for the optimized assay reaction time (see table). The reaction is stopped by adding 10 ul/well HTRF Detection Buffer containing 0.25 uM Streptavidin-XL665 (0.125 uM FAC) and 1:200 TK Antibody-Cryptate using a Multidrop.
After the Detection Reagent addition, plates are covered and incubated at room temperature for 60 minutes. HTRF signal is read using an Envision reader, measured as a ratio of emissions at two different wavelengths, 620 nm and 665 nm. […] Test compound data are expressed as percentage inhibition defined by HPE and ZPE values for each plate. Percentage inhibition in the presence of test compound is plotted against compound concentration on a log scale to determine an IC50 from the resultant sigmoid curve.
Where more than one reading was taken, the arithmetic mean is presented.

Sequence of TRKA (P04629 441-796): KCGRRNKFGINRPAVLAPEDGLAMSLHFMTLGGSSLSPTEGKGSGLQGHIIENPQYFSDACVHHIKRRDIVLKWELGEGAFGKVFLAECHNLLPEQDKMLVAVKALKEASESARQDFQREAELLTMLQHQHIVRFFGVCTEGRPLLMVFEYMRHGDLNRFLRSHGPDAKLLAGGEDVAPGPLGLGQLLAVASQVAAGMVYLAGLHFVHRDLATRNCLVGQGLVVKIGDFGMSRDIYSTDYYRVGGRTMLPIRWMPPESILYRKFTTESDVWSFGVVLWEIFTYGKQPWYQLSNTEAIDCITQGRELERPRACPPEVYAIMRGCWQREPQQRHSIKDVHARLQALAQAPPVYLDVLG

Row | Compound | IC50 [nM]
1 | CC(CO)n1cc(C(=O)c2cncc(NC(=O)Cc3ccc(Cl)cc3)c2)c2cncc(F)c21 (single isomer, unassigned) [Example 206, 2-(4-chlorophenyl)-N-(5-{[7-fluoro-1-(1-hydroxypropan-2-yl)-1H-pyrrolo[3,2-c]pyridin-3-yl]carbonyl}pyridin-3-yl)acetamide] | 20.7
2 | CC(CO)n1cc(C(=O)c2cncc(NC(=O)Cn3cc(C4CC4)nn3)c2)c2cncc(F)c21 (single isomer, unassigned) [Example 207, 2-(4-cyclopropyl-1H-1,2,3-triazol-1-yl)-N-(5-{[7-fluoro-1-(1-hydroxypropan-2-yl)-1H-pyrrolo[3,2-c]pyridin-3-yl]carbonyl}pyridin-3-yl)acetamide] | 179
3 | CC(CO)n1cc(C(=O)c2cncc(NC(=O)Cn3ccc(C(F)(F)F)n3)c2)c2cncc(F)c21 (single isomer, unassigned) [Example 208, N-(5-{[7-fluoro-1-(1-hydroxypropan-2-yl)-1H-pyrrolo[3,2-c]pyridin-3-yl]carbonyl}pyridin-3-yl)-2-[3-(trifluoromethyl)-1H-pyrazol-1-yl]acetamide] | 29.7
4 | CC(CO)n1cc(C(=O)c2cncc(NC(=O)Cn3ccc(C(F)(F)F)n3)c2)c2cncc(F)c21 (single isomer, unassigned) [Example 210, N-(5-{[7-fluoro-1-(1-hydroxypropan-2-yl)-1H-pyrrolo[3,2-c]pyridin-3-yl]carbonyl}pyridin-3-yl)-2-[3-(trifluoromethyl)-1H-pyrazol-1-yl]acetamide] | 45.6
5 | CC(CO)n1cc(C(=O)c2cncc(NC(=O)Cc3ccc(Cl)cn3)c2)c2cncc(F)c21 (single isomer, unassigned) [Example 211, 2-(5-chloropyridin-2-yl)-N-(5-{[7-fluoro-1-(1-hydroxypropan-2-yl)-1H-pyrrolo[3,2-c]pyridin-3-yl]carbonyl}pyridin-3-yl)acetamide] | 93.3
6 | CC(CO)n1cc(C(=O)c2cncc(NC(=O)Cc3ccc(F)cn3)c2)c2cncc(F)c21 (single isomer, unassigned) [Example 212, N-(5-{[7-fluoro-1-(1-hydroxypropan-2-yl)-1H-pyrrolo[3,2-c]pyridin-3-yl]carbonyl}pyridin-3-yl)-2-(5-fluoropyridin-2-yl)acetamide] | 479
7 | CC(CO)n1cc(C(=O)c2cncc(NC(=O)Cc3ccc(C#N)cc3)c2)c2cncc(F)c21 (single isomer, unassigned) [Example 213, 2-(4-cyanophenyl)-N-(5-{[7-fluoro-1-(1-hydroxypropan-2-yl)-1H-pyrrolo[3,2-c]pyridin-3-yl]carbonyl}pyridin-3-yl)acetamide] | 252
8 | CC(CO)n1cc(C(=O)c2cncc(NC(=O)Cn3ccc(C4CC4)n3)c2)c2cncc(F)c21 (single isomer, unassigned) [Example 215, 2-(3-cyclopropyl-1H-pyrazol-1-yl)-N-(5-{[7-fluoro-1-(1-hydroxypropan-2-yl)-1H-pyrrolo[3,2-c]pyridin-3-yl]carbonyl}pyridin-3-yl)acetamide] | 62
9 | Cc1cc(C(F)(F)F)nn1CC(=O)Nc1cncc(C(=O)c2cn(C(C)CO)c3c(F)cncc23)c1 (single isomer, unassigned) [Example 216, N-(5-{[7-fluoro-1-(1-hydroxypropan-2-yl)-1H-pyrrolo[3,2-c]pyridin-3-yl]carbonyl}pyridin-3-yl)-2-[5-methyl-3-(trifluoromethyl)-1H-pyrazol-1-yl]acetamide] | 20.4
10 | CC(CO)n1cc(C(=O)c2cncc(NC(=O)Cc3ccc(C#N)cc3)c2)c2cncc(F)c21 (single isomer, unassigned) [Example 217, 2-(4-cyanophenyl)-N-(5-{[7-fluoro-1-(1-hydroxypropan-2-yl)-1H-pyrrolo[3,2-c]pyridin-3-yl]carbonyl}pyridin-3-yl)acetamide] | 418
11 | CC(CO)n1cc(C(=O)c2cncc(NC(=O)Cc3ccc(F)cn3)c2)c2cncc(F)c21 (single isomer, unassigned) [Example 218, N-(5-{[7-fluoro-1-(1-hydroxypropan-2-yl)-1H-pyrrolo[3,2-c]pyridin-3-yl]carbonyl}pyridin-3-yl)-2-(5-fluoropyridin-2-yl)acetamide] | 425
12 | CC(CO)n1cc(C(=O)c2cncc(NC(=O)Cn3cc(C(F)(F)F)cn3)c2)c2cncc(F)c21 (single isomer, unassigned) [Example 219, N-(5-{[7-fluoro-1-(1-hydroxypropan-2-yl)-1H-pyrrolo[3,2-c]pyridin-3-yl]carbonyl}pyridin-3-yl)-2-[4-(trifluoromethyl)-1H-pyrazol-1-yl]acetamide] | 15.2
13 | CC(CO)n1cc(C(=O)c2cncc(NC(=O)Cn3cc(C(F)(F)F)nn3)c2)c2cncc(F)c21 (single isomer, unassigned) [Example 220, N-(5-{[7-fluoro-1-(1-hydroxypropan-2-yl)-1H-pyrrolo[3,2-c]pyridin-3-yl]carbonyl}pyridin-3-yl)-2-[4-(trifluoromethyl)-1H-1,2,3-triazol-1-yl]acetamide] | 160
14 | CC(CO)n1cc(C(=O)c2cncc(NC(=O)Cc3ccc(C(F)(F)F)cc3)c2)c2cncc(F)c21 (single isomer, unassigned) [Example 222, N-(5-{[7-fluoro-1-(1-hydroxypropan-2-yl)-1H-pyrrolo[3,2-c]pyridin-3-yl]carbonyl}pyridin-3-yl)-2-[4-(trifluoromethyl)phenyl]acetamide] | 16.4
15 | CC(CO)n1cc(C(=O)c2cncc(NC(=O)Cc3ccc(Cl)cc3)c2)c2cncc(F)c21 (single isomer, unassigned) [Example 223, 2-(4-chlorophenyl)-N-(5-{[7-fluoro-1-(1-hydroxypropan-2-yl)-1H-pyrrolo[3,2-c]pyridin-3-yl]carbonyl}pyridin-3-yl)acetamide] | 27.8
16 | CC(CO)n1cc(C(=O)c2cncc(NC(=O)Cc3ccc(C(F)(F)F)cc3)c2)c2cncc(F)c21 (single isomer, unassigned) [Example 224, N-(5-{[7-fluoro-1-(1-hydroxypropan-2-yl)-1H-pyrrolo[3,2-c]pyridin-3-yl]carbonyl}pyridin-3-yl)-2-[4-(trifluoromethyl)phenyl]acetamide] | 15.4
17 | CC(CO)n1cc(C(=O)c2cncc(NC(=O)Cc3ccc(Cl)cn3)c2)c2cncc(F)c21 (single isomer, unassigned) [Example 225, 2-(5-chloropyridin-2-yl)-N-(5-{[7-fluoro-1-(1-hydroxypropan-2-yl)-1H-pyrrolo[3,2-c]pyridin-3-yl]carbonyl}pyridin-3-yl)acetamide] | 46.3
18 | CC(CO)n1cc(C(=O)c2cncc(NC(=O)Cc3cccc(C(F)(F)F)c3)c2)c2cncc(F)c21 (single isomer, unassigned) [Example 226, N-(5-{[7-fluoro-1-(1-hydroxypropan-2-yl)-1H-pyrrolo[3,2-c]pyridin-3-yl]carbonyl}pyridin-3-yl)-2-[3-(trifluoromethyl)phenyl]acetamide] | 11.3
19 | CC(CO)n1cc(C(=O)c2cncc(NC(=O)Cn3cc(C(F)(F)F)cn3)c2)c2cncc(F)c21 (single isomer, unassigned) [Example 227, N-(5-{[7-fluoro-1-(1-hydroxypropan-2-yl)-1H-pyrrolo[3,2-c]pyridin-3-yl]carbonyl}pyridin-3-yl)-2-[4-(trifluoromethyl)-1H-pyrazol-1-yl]acetamide] | 24.3
